From PubChem BioAssay AID1645848
In brackets after ≈: the same amount, converted by molar mass.

Details: buffer; pH 7.4; 6.0 h; 150.0 µM

| solubility kinetic [µg/mL] | SMILES |
| --- | --- |
| 10.8 (≈ 26.5 µM) | COc1ccccc1Nc1ccnc(N2CCN(C(=O)c3ccc(F)cc3)CC2)n1 |
| > 55 | CC/C=C\C/C=C\C/C=C\C/C=C\C/C=C\C/C=C\CCC(=O)NCCO |
| > 62 | Cc1nc2sccn2c(=O)c1S(=O)(=O)Nc1ccc(N2CCN(C)CC2)cc1 |
| < 1 | Cc1cc(C)c(C(=O)Nc2cccc([S+](=O)([O-])N3CCCCCC3)c2)[nH]1 |
| > 58 | COc1cccc(CNc2ccc(S(=O)(=O)Nc3nccs3)cc2)c1O |
| 16.8 (≈ 43 µM) | CC(C)Oc1ccc(-c2ccc(=O)n(CC(=O)NCCc3ccccc3)n2)cc1 |
| > 39 | Nc1ncnc2c1ncn2[C@H]1O[C@@H](CO)[C@@H](O)[C@H]1N |
| < 1 | O=C1CCCC2=C1C(c1ccccc1Cl)N=C(Nc1nc3ccccc3o1)N2 (centres undefined) |
| 1.55 (≈ 3.73 µM) | CCCNC(=O)Nc1ccc(Oc2ncnc3cc(OC)c(OC)cc23)cc1Cl |
| > 56 | COc1ccc(-n2nc(C3CCN(C(=O)c4ccccc4)CC3)[nH]c2=O)cc1 |
| > 66 | Cc1ccc(S(=O)(=O)Nc2nc3ccc(C)cc3nc2Nc2ccc3c(c2)OCO3)cc1 |
| > 59 | CN(C)C(=O)c1nc(-c2ccc(Cl)cc2Cl)c2cnccn12 |
| 7.25 (≈ 18.1 µM) | Cc1cccc(-n2ncc3c2CCCC3NC(=O)c2c(F)ccc(F)c2F)c1C (centres undefined) |
| < 1 | N#Cc1c(NC(=O)c2cccc3ccccc23)sc2c1CCCC2 |
| < 1 | Cc1ccc(-c2cc(C(=O)NCc3cnn(C)c3)c3cc(Br)ccc3n2)cc1 |
| < 1 | FC(F)(F)c1ccccc1-c1nc(NCc2cccs2)c2ccccc2n1 |
| 1.39 (≈ 3.39 µM) | O=C(Nc1ccc(S(=O)(=O)Nc2nccs2)cc1)c1cccc2ccccc12 |
| > 57 | NC(=O)COc1cccc(C2CC(=O)Nc3nc(N4CCCCC4)sc32)c1 (centres undefined) |
| > 100 | CNC(=O)c1ccc(C)c(-n2c(C)cc(OCc3ccc(F)cc3F)c(Br)c2=O)c1 |
| < 1 | N#C/C(=C\c1ccc(Sc2ccc(Cl)cc2)o1)c1nc2ccccc2[nH]1 |
| 4.24 (≈ 12.3 µM) | Cc1ccc(-c2cc(C(=O)Nc3ncco3)c3ccccc3n2)cc1C |
| 13.4 (≈ 31.8 µM) | Cc1cn2c(-c3cn[nH]c3)cnc2c(Nc2ccc(C(=O)N3CCNCC3)cc2F)n1 |
| < 1 | CC(C)c1ccccc1-c1ncc(F)c(NC(C)(C)c2ccc(-c3cccnc3)cc2)n1 |

| solubility kinetic [µg/mL] | SMILES |
| --- | --- |
| < 1 | Cc1ccc(-c2cc(C(=O)NCc3ccc(S(N)(=O)=O)cc3)c3ccccc3n2)cc1C |
| < 1 | O=C(O)Cc1ccc2oc(-c3ccc(NC(=O)/C=C/c4ccc(Br)cc4)c(F)c3)nc2c1 |
| > 70 | COc1cc2c(Nc3ccc(Br)cc3F)ncnc2cc1OCC1CCN(C)CC1 |
| 13.5 (≈ 34.3 µM) | [2H]C([2H])(Nc1nc(-c2ccccc2C([2H])(C([2H])([2H])[2H])C([2H])([2H])[2H])ncc1C)c1ccc(-n2ccnn2)cc1 |
| < 1 | Cc1ccc(S(=O)(=O)Nc2ccc(OC(F)(F)F)cc2C(=O)Nc2nc(-c3ccccc3)cs2)cc1 |
| < 1 | CC(=O)c1c(C)c(C(=O)Nc2cccc([S+](=O)([O-])N3CCCCCC3)c2)n(C)c1C |
| 40.3 (≈ 124 µM) | CCCn1cnc2cc(NCc3ccc(OC)cc3OC)ccc21 |
| < 1 | COc1ccc(C(=O)Nc2ccc3c(c2)N(C2CCCC2)C(=O)c2ccccc2S3)cc1OC |
| > 48 | COc1ccc(CNC(=O)CCCn2nc(C)c3c(C)n(-c4ccc(C)cc4)nc3c2=O)cc1OC |
| < 1 | CC1(C)CC2CC(C)(CN2S(=O)(=O)c2ccc(C(=O)Nc3ccc(Cl)cc3)cc2)C1 (centres undefined) |
| < 1 | CC1=C(C(=O)NCc2ccccc2)C(c2ccccc2Br)N=C(Nc2nc3ccccc3o2)N1 (centres undefined) |
| 1.1 (≈ 2.46 µM) | O=S(=O)(Nc1nc2ccccc2s1)c1ccc(NCc2cccc(Cl)c2O)cc1 |
| < 1 | Fc1cc(Nc2nc(-c3ccncc3)nc3ccccc23)ccc1OCC(F)(F)F |
| < 1 | Clc1cccc(-c2ccc(-c3nnc(CCCc4ccc5cccnc5n4)o3)cc2)c1 |
| 2.05 (≈ 4.33 µM) | CN(C)c1ccc(S(=O)(=O)N2CCCCC2)cc1NS(=O)(=O)c1ccc2ccccc2c1 |
| 1.2 (≈ 3.48 µM) | Cn1nnnc1Sc1ncnc2scc(-c3ccccc3F)c12 |
| < 1 | CSc1nnc2c3ccccc3n(CCc3ccccc3)c2n1 |
| 18.3 (≈ 65 µM) | Cc1cccc(-c2noc([C@@H]3Cc4nc[nH]c4CN3)n2)c1 |
| < 1 | CCOC(=O)c1cc(C)sc1NC(=O)c1ccc(Cl)s1 |
| > 48 | NC(=O)C1CCN(c2nc(-c3cc4ccccc4o3)cs2)CC1 |
| 2.08 (≈ 5.13 µM) | COc1cccc(CN(C)c2ccc([S+](=O)([O-])Nc3nccs3)cc2)c1O |
| < 1 | Cc1ccccc1C(=O)N1CCc2cc(-c3nc(NC(=O)Cc4ccc5c(c4)OCO5)sc3C)ccc21 |
| 1.69 (≈ 3.16 µM) | COc1ccc(C2Nc3ccccc3C(=O)N2Cc2cccnc2)cc1COc1c(C)cc(NC(C)=O)cc1C (centres undefined) |

| solubility kinetic [µg/mL] | SMILES |
| --- | --- |
| > 55 | COc1cc2c(c(OC)c1OC)-c1ccc(SC)c(=O)cc1C(N)CC2 (centres undefined) |
| < 1 | Cc1ccc(S(=O)(=O)Nc2cnccc2C(=O)Nc2nc(-c3ccc(Cl)cc3)cs2)cc1 |
| < 1 | O=C(Cc1n[nH]c(=O)c2ccccc12)NC1CCCc2c1[nH]c1c(Cl)cccc21 (centres undefined) |
| > 75 | C[C@@H](NC(=O)c1ncnc(N)c1Cl)c1ncc(C(=O)Nc2cc(C(F)(F)F)c(Cl)cn2)s1 |
| < 1 | COc1ccc(-c2nc(Nc3ccc(F)c(F)c3)c3ccccc3n2)cc1 |
| 3.79 (≈ 7.12 µM) | Cc1ccc(-c2cc(C(=O)Nc3ccc(S(=O)(=O)Nc4ccc(C#N)cc4)cc3)c3ccccc3n2)cc1C |
| < 1 | CCn1c(-c2nonc2N)nc2cnc(Oc3cccc(NC(=O)c4ccc(OCCN5CCOCC5)cc4)c3)cc21 |
| 7.85 (≈ 20.1 µM) | COc1ccc(CNc2ccc(S(=O)(=O)Nc3nccs3)cc2)cc1O |
| > 55 | NC(=O)C1CCN(c2ncc(-c3cccc(N4CCOCC4)c3)s2)CC1 |
| < 1 | Cc1cccc([C@H]2[C@@H]3C=CC[C@@H](C)[C@@H]3C(=O)N2Cc2ccccc2)c1 |
| 18.7 (≈ 51 µM) | CC(=O)Nc1ccc(OCc2cn(CC(=O)c3ccc(O)cc3)nn2)cc1 |
| < 1 | C#C[C@]1(OC(C)=O)CC[C@H]2[C@@H]3CCC4=C/C(=N/O)CC[C@@H]4[C@H]3CC[C@@]21CC |
| > 47 | O=C(O)c1ccccc1C(=O)Nc1ccc(-c2ccccc2)cc1 |
| < 1 | O=C1Nc2ccccc2C12CC2c1cc(Cl)c(O)c(Cl)c1 (centres undefined) |
| < 1 | COc1cccc(Cn2c(=O)n(-c3cccc(Cl)c3C)c(=O)c3c4c(sc32)CN(C(C)=O)CC4)c1 |
| > 58 | COc1ccc(O)c(CNc2ccc(S(=O)(=O)Nc3nccs3)cc2)c1 |
| > 34 | CCCc1c(CC)c(=N)c2ccccc2n1C.I |
| < 1 | Fc1ccc(Nc2nc(-c3ccnc(N4CCCCC4)c3)nc3ccccc23)cc1F |
| > 86 | COc1ccc(OC)c(CN2CCNc3cc(Nc4ccccc4)ncc3C2)c1 |
| 0.131 (≈ 0.271 µM) | CCOc1ccc(/C=C/c2nc3ccccc3n2S(=O)(=O)c2ccc(Br)cc2)cc1 |
| 16.6 (≈ 36.4 µM) | COc1cccc(CNCCSc2nnnn2C)c1OCc1ccc(Cl)cc1Cl |

| SMILES | solubility kinetic [µg/mL] |
| --- | --- |
| CCOc1ccc(CCNC(=O)c2cc3cccnc3n2Cc2cccc(C)c2)cc1OCC | < 1 |
| COc1ccc(C(=O)CCN(C)C)cc1F | > 33 |
